The numbers were not newly measured in US20220267753A1, “RATIONAL THERAPEUTIC TARGETING OF ONCOGENIC IMMUNE SIGNALING STATES IN MYELOID MALIGNANCIES VIA THE UBIQUITIN CONJUGATING ENZYME UBE2N” (CHILDREN'S HOSPITAL MEDICAL CENTER, priority 2019, published 2022), which cites them from elsewhere.

The data set concerns the target T1, UBE2N (Homo sapiens, UniProt P61088).
T1 sequence (P61088 1-152): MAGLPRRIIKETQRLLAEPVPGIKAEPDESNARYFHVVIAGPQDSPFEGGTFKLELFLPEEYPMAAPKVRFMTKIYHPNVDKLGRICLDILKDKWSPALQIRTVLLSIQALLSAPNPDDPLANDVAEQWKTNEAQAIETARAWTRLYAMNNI
To be noted: cited from earlier work; for inhibition of UBE2N by covalent reaction with Cys-87: reference [16]; for selectivity among cysteine-containing ubiquitin enzymes: references [23-25].

Each structure is given as a SMILES string.

As for `Cc1ccc(S(=O)(=O)c2ccc([N+](=O)[O-])o2)cc1` [NSC697923, 2-(4-methylphenyl)sulfonyl-5-nitrofuran], the “inhibition of UBE2N by covalent reaction with Cys-87” value is listed as “irreversible inhibition of UBE2N” and the “selectivity among cysteine-containing ubiquitin enzymes” value is reported as “non-selective inhibitors”.
Regarding `Cc1ccc(S(=O)(=O)/C=C/C#N)cc1` [BAY11-7082], the “inhibition of UBE2N by covalent reaction with Cys-87” value was “irreversible inhibition of UBE2N” and the “selectivity among cysteine-containing ubiquitin enzymes” value is listed as “non-selective inhibitors”.
